Assay results taken from PubChem BioAssay AID1963967 (Molecular Pharmacology Branch, DTP, NCI, 2024).

System: 855422-203-R-J1-PDC spheroids with HUVEC/MSC, viability
Test: Anticancer human tumor 855422-203-R-J1-PDC patient-derived bladder carcinoma cell line growth inhibition [PI3K]
Conditions: for IC50: curve of first compound; for viability, T/C: stronger effect = lower value
In short: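 Agents were dosed from a top concentration near clinical Cmax (otherwise 10 microM) in half-log decrements, alone or combined with PI3K inhibitors. The spheroids contain tumor cells plus endothelial (HUVEC) and MSC stroma; viability is measured.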

[1] = second compound 0.00316 µM, first compound 0.0316 µM
[2] = second compound 0.00316 µM, first compound 0.1 µM
[3] = second compound 0.01 µM, first compound 0.0316 µM
[4] = second compound 0.01 µM, first compound 0.1 µM
[5] = second compound 0.0316 µM, first compound 0.000316 µM
[6] = second compound 0.0316 µM, first compound 0.001 µM
[7] = second compound 0.0316 µM, first compound 0.00316 µM
[8] = second compound 0.0316 µM, first compound 0.01 µM
[9] = second compound 0.0316 µM, first compound 0.0316 µM
[10] = second compound 0.0316 µM, first compound 0.1 µM
[11] = second compound 0.1 µM, first compound 0.000316 µM
[12] = second compound 0.1 µM, first compound 0.001 µM
[13] = second compound 0.1 µM, first compound 0.00316 µM
[14] = second compound 0.1 µM, first compound 0.01 µM
[15] = second compound 0.1 µM, first compound 0.0316 µM
[16] = second compound 0.1 µM, first compound 0.1 µM
[17] = second compound 0.316 µM, first compound 0.000316 µM
[18] = second compound 0.316 µM, first compound 0.001 µM
[19] = second compound 0.316 µM, first compound 0.00316 µM
[20] = second compound 0.316 µM, first compound 0.01 µM
[21] = second compound 0.316 µM, first compound 0.0316 µM
[22] = second compound 0.316 µM, first compound 0.1 µM
[23] = second compound 1 µM, first compound 0.000316 µM
[24] = second compound 1 µM, first compound 0.001 µM
[25] = second compound 1 µM, first compound 0.00316 µM
[26] = second compound 1 µM, first compound 0.01 µM
[27] = second compound 1 µM, first compound 0.0316 µM
[28] = second compound 1 µM, first compound 0.1 µM
[29] = second compound 0.0316 µM, first compound 0.316 µM
[30] = second compound 0.0316 µM, first compound 1 µM
[31] = second compound 0.1 µM, first compound 0.316 µM
[32] = second compound 0.1 µM, first compound 1 µM
[33] = second compound 0.316 µM, first compound 0.316 µM
[34] = second compound 0.316 µM, first compound 1 µM
[35] = second compound 1 µM, first compound 0.316 µM
[36] = second compound 1 µM, first compound 1 µM
[37] = second compound 3.16 µM, first compound 0.00316 µM
[38] = second compound 3.16 µM, first compound 0.01 µM
[39] = second compound 3.16 µM, first compound 0.0316 µM
[40] = second compound 3.16 µM, first compound 0.1 µM
[41] = second compound 10 µM, first compound 0.00316 µM
[42] = second compound 10 µM, first compound 0.01 µM
[43] = second compound 10 µM, first compound 0.0316 µM
[44] = second compound 10 µM, first compound 0.1 µM
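Further: agents incubated with spheroids for one week before read-out.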
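Wherever viability, T/C is given: 100% = DMSO vehicle-treated control wells.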

Compound: Cn1ncnc1[C@H]1c2n[nH]c(=O)c3cc(F)cc(c23)N[C@@H]1c1ccc(F)cc1 + COc1c(OCCCN2CCOCC2)ccc2c3n(c(=NC(=O)c4cnc(N)nc4)nc12)CCN3
- IC50 (second compound 0.00316 µM): > 100 nM
- IC50 (second compound 0.01 µM): > 100 nM
- IC50 (second compound 0.0316 µM): > 100 nM
- IC50 (second compound 0.1 µM): < 0.316 nM
- IC50 (second compound 0.316 µM): < 0.316 nM
- IC50 (second compound 1 µM): < 0.316 nM
- viability, T/C (second compound 0.00316 µM, first compound 0.000316 µM): 97.2%
- viability, T/C (second compound 0.00316 µM, first compound 0.001 µM): 98%
- viability, T/C (second compound 0.00316 µM, first compound 0.00316 µM): 98.6%
- viability, T/C (second compound 0.00316 µM, first compound 0.01 µM): 90.5%
- viability, T/C [1]: 90.8%
- viability, T/C [2]: 91.7%
- viability, T/C (second compound 0.01 µM, first compound 0.000316 µM): 88.8%
- viability, T/C (second compound 0.01 µM, first compound 0.001 µM): 80.7%
- viability, T/C (second compound 0.01 µM, first compound 0.00316 µM): 78%
- viability, T/C (second compound 0.01 µM, first compound 0.01 µM): 97.2%
- viability, T/C [3]: 94.6%
- viability, T/C [4]: 92.2%
- viability, T/C [5]: 65.5%
- viability, T/C [6]: 62.2%
- viability, T/C [7]: 62.2%
- viability, T/C [8]: 52.7%
- viability, T/C [9]: 52.7%
- viability, T/C [10]: 53.1%
- viability, T/C [11]: 24.2%
- viability, T/C [12]: 25.9%
- viability, T/C [13]: 29.1%
- viability, T/C [14]: 27.5%
- viability, T/C [15]: 22.9%
- viability, T/C [16]: 24.5%
- viability, T/C [17]: 9.77%
- viability, T/C [18]: 8.64%
- viability, T/C [19]: 8.11%
- viability, T/C [20]: 8.04%
- viability, T/C [21]: 7.3%
- viability, T/C [22]: 8.75%
- viability, T/C [23]: 4.95%
- viability, T/C [24]: 3.74%
- viability, T/C [25]: 3.02%
- viability, T/C [26]: 3.29%
- viability, T/C [27]: 4.31%
- viability, T/C [28]: 3.2%

Compound: CCN1CCN(Cc2ccc(Nc3ncc(F)c(-c4cc(F)c5nc(C)n(C(C)C)c5c4)n3)nc2)CC1 + Cc1nc(NC(=O)N2CCCC2C(N)=O)sc1-c1ccnc(C(C)(C)C(F)(F)F)c1
- IC50 (second compound 0.0316 µM): 558 nM
- IC50 (second compound 0.1 µM): 816 nM
- IC50 (second compound 0.316 µM): 141 nM
- IC50 (second compound 1 µM): 12 nM
- IC50 (second compound 3.16 µM): < 3.16 nM
- IC50 (second compound 10 µM): < 3.16 nM
- viability, T/C [7]: 102%
- viability, T/C [8]: 80.5%
- viability, T/C [9]: 97.1%
- viability, T/C [10]: 70.4%
- viability, T/C [29]: 60.1%
- viability, T/C [30]: 40.6%
- viability, T/C [13]: 99.9%
- viability, T/C [14]: 90.3%
- viability, T/C [15]: 86%
- viability, T/C [16]: 67.7%
- viability, T/C [31]: 60.6%
- viability, T/C [32]: 47.7%
- viability, T/C [19]: 80.3%
- viability, T/C [20]: 79.7%
- viability, T/C [21]: 65.1%
- viability, T/C [22]: 54.9%
- viability, T/C [33]: 40.4%
- viability, T/C [34]: 28.2%
- viability, T/C [25]: 57.2%
- viability, T/C [26]: 56.2%
- viability, T/C [27]: 35.2%
- viability, T/C [28]: 34.7%
- viability, T/C [35]: 22%
- viability, T/C [36]: 20.2%
- viability, T/C [37]: 37.1%
- viability, T/C [38]: 36.4%
- viability, T/C [39]: 20.3%
- viability, T/C [40]: 18.8%
- viability, T/C (second compound 3.16 µM, first compound 0.316 µM): 15.4%
- viability, T/C (second compound 3.16 µM, first compound 1 µM): 16.1%
- viability, T/C [41]: 18.5%
- viability, T/C [42]: 12.4%
- viability, T/C [43]: 13.6%
- viability, T/C [44]: 12.1%
- viability, T/C (second compound 10 µM, first compound 0.316 µM): 9.73%
- viability, T/C (second compound 10 µM, first compound 1 µM): 11.2%

Compound: Cn1ncnc1[C@H]1c2n[nH]c(=O)c3cc(F)cc(c23)N[C@@H]1c1ccc(F)cc1 + Cc1nc(NC(=O)N2CCCC2C(N)=O)sc1-c1ccnc(C(C)(C)C(F)(F)F)c1
- IC50 (second compound 0.0316 µM): > 100 nM
- IC50 (second compound 0.1 µM): > 100 nM
- IC50 (second compound 0.316 µM): > 100 nM
- IC50 (second compound 1 µM): > 100 nM
- IC50 (second compound 3.16 µM): 0.903 nM
- IC50 (second compound 10 µM): < 0.316 nM
- viability, T/C [5]: 112%
- viability, T/C [6]: 92.8%
- viability, T/C [7]: 112%
- viability, T/C [8]: 96.8%
- viability, T/C [9]: 105%
- viability, T/C [10]: 109%
- viability, T/C [11]: 105%
- viability, T/C [12]: 102%
- viability, T/C [13]: 102%
- viability, T/C [14]: 101%
- viability, T/C [15]: 101%
- viability, T/C [16]: 105%
- viability, T/C [17]: 92.9%
- viability, T/C [18]: 93.8%
- viability, T/C [19]: 95.8%
- viability, T/C [20]: 94.7%
- viability, T/C [21]: 98.6%
- viability, T/C [22]: 97.2%
- viability, T/C [23]: 72.7%
- viability, T/C [24]: 74%
- viability, T/C [25]: 79.2%
- viability, T/C [26]: 75.5%
- viability, T/C [27]: 79.4%
- viability, T/C [28]: 68.3%
- viability, T/C (second compound 3.16 µM, first compound 0.000316 µM): 51.6%
- viability, T/C (second compound 3.16 µM, first compound 0.001 µM): 49.8%
- viability, T/C [37]: 47.1%
- viability, T/C [38]: 47.7%
- viability, T/C [39]: 49.1%
- viability, T/C [40]: 44.6%
- viability, T/C (second compound 10 µM, first compound 0.000316 µM): 25.6%
- viability, T/C (second compound 10 µM, first compound 0.001 µM): 25.1%
- viability, T/C [41]: 22.2%
- viability, T/C [42]: 27.8%
- viability, T/C [43]: 25.1%
- viability, T/C [44]: 21.3%

Compound: CCCS(=O)(=O)Nc1ccc(F)c(C(=O)c2c[nH]c3ncc(-c4ccc(Cl)cc4)cc23)c1F + COc1c(OCCCN2CCOCC2)ccc2c3n(c(=NC(=O)c4cnc(N)nc4)nc12)CCN3
- IC50 (second compound 0.00316 µM): 4390 nM
- IC50 (second compound 0.01 µM): 4840 nM
- IC50 (second compound 0.0316 µM): 3060 nM
- IC50 (second compound 0.1 µM): < 31.6 nM
- IC50 (second compound 0.316 µM): < 31.6 nM
- IC50 (second compound 1 µM): < 31.6 nM
- viability, T/C [1]: 97.6%
- viability, T/C [2]: 83.8%
- viability, T/C (second compound 0.00316 µM, first compound 0.316 µM): 87.2%
- viability, T/C (second compound 0.00316 µM, first compound 1 µM): 82.5%
- viability, T/C (second compound 0.00316 µM, first compound 3.16 µM): 71.3%
- viability, T/C (second compound 0.00316 µM, first compound 10 µM): 0.07%
- viability, T/C [3]: 105%
- viability, T/C [4]: 89.5%
- viability, T/C (second compound 0.01 µM, first compound 0.316 µM): 83%
- viability, T/C (second compound 0.01 µM, first compound 1 µM): 90.6%
- viability, T/C (second compound 0.01 µM, first compound 3.16 µM): 78.9%
- viability, T/C (second compound 0.01 µM, first compound 10 µM): 0.31%
- viability, T/C [9]: 68.2%
- viability, T/C [10]: 75.1%
- viability, T/C [29]: 78.6%
- viability, T/C [30]: 67.1%
- viability, T/C (second compound 0.0316 µM, first compound 3.16 µM): 49.7%
- viability, T/C (second compound 0.0316 µM, first compound 10 µM): 0.93%
- viability, T/C [15]: 34.5%
- viability, T/C [16]: 35.3%
- viability, T/C [31]: 34.1%
- viability, T/C [32]: 32.4%
- viability, T/C (second compound 0.1 µM, first compound 3.16 µM): 23.9%
- viability, T/C (second compound 0.1 µM, first compound 10 µM): 1.58%
- viability, T/C [21]: 11.9%
- viability, T/C [22]: 11.4%
- viability, T/C [33]: 11.9%
- viability, T/C [34]: 11.8%
- viability, T/C (second compound 0.316 µM, first compound 3.16 µM): 8.59%
- viability, T/C (second compound 0.316 µM, first compound 10 µM): 0.86%
- viability, T/C [27]: 4.83%
- viability, T/C [28]: 3.64%
- viability, T/C [35]: 4.81%
- viability, T/C [36]: 6.51%
- viability, T/C (second compound 1 µM, first compound 3.16 µM): 3.75%
- viability, T/C (second compound 1 µM, first compound 10 µM): 2%
